Laboratory results: PubChem BioAssay AID328 (DTP/NCI, 2004)
Toxic doses and inconclusive results are not listed.

Columns and labels:
[1] = system: BDF1 mice, P388 leukemia ip; experiment: NCI In Vivo Anticancer Drug Screen. Data for tumor model P388 Leukemia (intraperitoneal) in B6D2F1 (BDF1) mice; details: endpoint: mean survival time, schedule: Q01DX010 (ip), vehicle: carboxymethylcellulose (CMC), higher = longer survival
In short: (§1)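 In tumour-bearing mice, survival after compound treatment is set against the vehicle group and given as a quotient.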

[2] = system: BDF1 mice, P388 leukemia ip, median survival T/C; experiment: as above; details: endpoint: median survival time, higher = longer survival
In short: as §1

Question: `CC(C)(O)CCC(=O)C(C)(O)C1C(O)CC2(C)C3CC=C4C(CC(O)C(=O)C4(C)C)C3(C)C(=O)CC12C` (stereo not given) was tested. Which T/C ([1]; dose: 1.0 mg/kg/injection) did it give?
Answer: 97 % of control

Question: And the T/C ([1]; dose: 2.0 mg/kg/injection)?
Answer: 86 % of control

Question: And the T/C ([2]; dose: 1.0 mg/kg/injection, schedule: Q01DX010 (ip), vehicle: carboxymethylcellulose (CMC))?
Answer: 121 % of control

Question: And the T/C ([2]; dose: 2.0 mg/kg/injection, schedule: Q01DX010 (ip), vehicle: carboxymethylcellulose (CMC))?
Answer: 121 % of control

Question: What about the T/C ([2]; dose: 4.0 mg/kg/injection, schedule: Q01DX010 (ip), vehicle: carboxymethylcellulose (CMC)) of the same compound?
Answer: 121 % of control

Question: Which results are given for `CC(C)=CC(=O)C1C(=O)c2ccccc2C1=O`?
Answer: T/C ([1]; dose: 25.0 mg/kg/injection): 93 % of control; T/C ([1]; dose: 50.0 mg/kg/injection): 101 % of control; T/C ([1]; dose: 100.0 mg/kg/injection): 101 % of control; T/C ([1]; dose: 200.0 mg/kg/injection): 96 % of control

Question: Which T/C ([2]; dose: 8.25 mg/kg/injection, schedule: Q04DX003 (ip), vehicle: saline with Tween-80) does the source give for `NC(CC(=O)CCl)C(=O)O` (stereo not given) here?
Answer: 154 % of control

Question: What about the T/C ([2]; dose: 12.5 mg/kg/injection, schedule: Q04DX003 (ip), vehicle: Klucel (hydroxypropylcellulose) (HPC)) of the same compound?
Answer: 165 % of control

Question: What about the T/C ([2]; dose: 12.5 mg/kg/injection, schedule: Q04DX003 (ip), vehicle: saline with Tween-80) of the same compound?
Answer: 172 % of control

Question: What about the T/C ([2]; dose: 18.75 mg/kg/injection, schedule: Q04DX003 (ip), vehicle: saline with Tween-80) of the same compound?
Answer: 109 % of control

Question: What about the T/C ([2]; dose: 25.0 mg/kg/injection, schedule: Q04DX003 (ip), vehicle: Klucel (hydroxypropylcellulose) (HPC)) of the same compound?
Answer: 165 % of control

Question: `C(=NC(c1ccccc1)(c1ccccc1)c1ccccc1)=NC(c1ccccc1)(c1ccccc1)c1ccccc1` was tested. Which T/C ([2]; dose: 12.5 mg/kg/injection, schedule: Q01DX009 (ip), vehicle: gum acacia) did it give?
Answer: 87 % of control

Question: And the T/C ([2]; dose: 25.0 mg/kg/injection, schedule: Q01DX009 (ip), vehicle: gum acacia)?
Answer: 100 % of control

Question: And the T/C ([2]; dose: 50.0 mg/kg/injection, schedule: Q01DX009 (ip), vehicle: gum acacia)?
Answer: 95 % of control

Question: And the T/C ([2]; dose: 100.0 mg/kg/injection, schedule: Q01DX009 (ip), vehicle: gum acacia)?
Answer: 88 % of control

Question: And the T/C ([2]; dose: 100.0 mg/kg/injection, schedule: Q04DX003 (ip), vehicle: gum acacia)?
Answer: 100 % of control

Question: What about the T/C ([2]; dose: 200.0 mg/kg/injection, schedule: Q01DX009 (ip), vehicle: gum acacia) of the same compound?
Answer: 88 % of control

Question: And the T/C ([2]; dose: 200.0 mg/kg/injection, schedule: Q04DX003 (ip), vehicle: gum acacia)?
Answer: 91 % of control

Question: With `Cc1c2oc3c(C)c(N)cc(C(=O)NC4C(=O)NC(C(C)C)C(=O)N5CCCC5C(=O)N(C)CC(=O)N(C)C(C(C)C)C(=O)OC4C)c3nc-2c(C(=O)NC2C(=O)NC(C(C)C)C(=O)N3CCCC3C(=O)N(C)CC(=O)N(C)C(C(C)C)C(=O)OC2C)c(N)c1=O` (stereo not given) as the compound, how does the T/C ([2]; dose: 75.0 micrograms/kg/injection, schedule: Q01DX009 (ip), vehicle: saline + alcohol) read?
Answer: 153 % of control

Question: And the T/C ([2]; dose: 225.0 micrograms/kg/injection, schedule: Q04DX003 (ip), vehicle: saline + alcohol)?
Answer: 151 % of control

Question: And the T/C ([2]; dose: 450.0 micrograms/kg/injection, schedule: Q04DX003 (ip), vehicle: saline + alcohol)?
Answer: 90 % of control

Question: With `O=C(NC(=O)c1c(F)cccc1F)Nc1ccc(Cl)c(Cl)c1` as the compound, how does the T/C ([2]; dose: 25.0 mg/kg/injection, schedule: Q01DX009 (ip), vehicle: saline with Tween-80) read?
Answer: 96 % of control

Question: And the T/C ([2]; dose: 50.0 mg/kg/injection, schedule: Q01DX009 (ip), vehicle: saline with Tween-80)?
Answer: 97 % of control

Question: And the T/C ([2]; dose: 100.0 mg/kg/injection, schedule: Q01DX009 (ip), vehicle: saline with Tween-80)?
Answer: 100 % of control

Question: Which T/C ([2]; dose: 50.0 mg/kg/injection, schedule: Q01DX001 (ip), vehicle: saline) does the source give for `OCCNCCNCCO` here?
Answer: 100 % of control

Question: And the T/C ([2]; dose: 100.0 mg/kg/injection, schedule: Q01DX001 (ip), vehicle: saline)?
Answer: 104 % of control

Question: And the T/C ([2]; dose: 200.0 mg/kg/injection, schedule: Q01DX001 (ip), vehicle: saline)?
Answer: 104 % of control
